Reference: patent US8637516B2 (IRM LLC, priority 2010, dated 2014)

Legend:
[1] = biological target: T1, Ba/F3 cells transformed with human Tel-TrkA (Homo sapiens, UniProt P04629); test: Proliferation of Ba/F3 cells transformed with human Tel-TrkA (Ba/F3 Tel-TrkA); assay type: cell-based; settings: Table 1; 48 hours, Bright Glo luminescence; read-out: Ba/F3 Tel-TrkA
T1 construct: expressed in transfected cells; host or cells: Ba/F3 murine hematopoietic progenitor cells (luciferase expressing); the other entry of the earlier key: ETV6 (P41212, Transcription factor ETV6)
T1 sequence (P04629 510-796 limits assumed): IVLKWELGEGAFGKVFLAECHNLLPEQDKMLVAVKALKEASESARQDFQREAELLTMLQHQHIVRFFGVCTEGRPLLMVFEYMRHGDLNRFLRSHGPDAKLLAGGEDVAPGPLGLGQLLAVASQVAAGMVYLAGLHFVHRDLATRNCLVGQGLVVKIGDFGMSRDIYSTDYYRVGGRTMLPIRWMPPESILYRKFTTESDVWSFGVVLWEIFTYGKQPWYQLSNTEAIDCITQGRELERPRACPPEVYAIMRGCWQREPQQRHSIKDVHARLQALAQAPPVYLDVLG
Source text: (§1) Compound dilutions were made in 384 well plates.
(§2) The emited luminiscence is quantified using ViewLux (PerkinElmer).

[2] = tested on: parental Ba/F3 cells; test: Proliferation of parental (untransformed, wt) Ba/F3 cells (BAF3/WT); assay type: cell-based, murine; settings: Mus musculus, Table 1, parental cells with IL3, 48 hours
Procedure: as §1
Compounds were tested for their ability to inhibit the proliferation of wt Ba/F3 cells and Ba/F3 cells transformed with constitutively expressed luciferase reporter and BCR-ABL or Tel-FMS or other Tel fusion kinases (EGFR, JAK2, ALK, BMX, FGFR3, FGFR4, FGR2, FLT1, FLT3, IGF1R, INSR, KDR, KIT, LCK, LYN, MEK, MET, PDGFRα, PDGFRβ, RET, RON, ROS, SRC, SYK, TIE and TYRO) or BRafV600E. Parental Ba/F3 cells were maintained in media containing recombinant mouse IL3 and the kinase transformed Ba/F3 cells were maintained in media without IL-3. 7.5 nl of compounds were spotted to each well of 1536-well assay plates by Liquid handling System Echo 555 (Labcyte). 700 cells were then plated into each well of the assay plates in 7 uL culture media per well and compounds were tested at 0.17 nM to 10 uM in 3-fold serial dilutions. The cells were then incubated for 48 hours at 37° C. 3 uL of Bright-Glo® (Promega) was added to each well and the plates were read using ViewLux (PerkinElmer).
as §2

Row | SMILES | IC50 [1] | IC50 [2]
1 | CC(C)(C)[C@@H](CO)NC(=O)c1cnc2ccc(N3CCC[C@@H]3c3cccc(F)c3)nn12 [X-103] | 379 nM | > 10000 nM
2 | CC(C)C[C@@H](CO)NC(=O)c1cnc2ccc(N3CCC[C@@H]3c3cccc(F)c3)nn12 [X-104] | 697 nM | > 10000 nM
3 | O=C(NC[C@H](O)CO)c1cnc2ccc(N3CCC[C@@H]3c3cccc(F)c3)nn12 [X-105] | 388 nM | > 10000 nM
4 | CC(C)C[C@H](CO)NC(=O)c1cnc2ccc(N3CCC[C@@H]3c3cccc(F)c3)nn12 [X-107] | 40 nM | > 10000 nM
5 | O=C(NCCC1CCCC1)c1cnc2ccc(N3CCC[C@@H]3c3cccc(F)c3)nn12 [X-108] | 191 nM | 6480 nM
6 | O=C(NCC1CCCC1)c1cnc2ccc(N3CCC[C@@H]3c3cccc(F)c3)nn12 [X-109] | 40 nM | 7960 nM
7 | CC1(C)[C@H]2CC[C@@H](CNC(=O)c3cnc4ccc(N5CCC[C@@H]5c5cccc(F)c5)nn34)[C@@H]1C2 [X-110] | 207 nM | > 9760 nM
8 | NC(=O)CNC(=O)c1cnc2ccc(N3C[C@@H](F)C[C@@H]3c3cccc(F)c3)nn12 [X-117] | 64 nM | > 10000 nM
9 | NS(=O)(=O)CCNC(=O)c1cnc2ccc(N3C[C@@H](F)CC3c3cccc(F)c3)nn12 (stereo partly shown) [X-118] | 54 nM | > 10000 nM
10 | O=C(NC1CCNCC1)c1cnc2ccc(N3C[C@@H](F)C[C@@H]3c3cccc(F)c3)nn12 [X-120] | 331 nM | > 10000 nM
11 | CCC(=O)c1cnc2ccc(N3CCC[C@@H]3c3cccc(F)c3)nn12 [X-123, (R)-1-(6-(2-(3-fluorophenyl)pyrrolidin-1-yl)imidazo[1,2-b]pyridazin-3-yl)propan-1-one] | 97 nM | > 10000 nM
12 | O=C(c1cnc2ccc(N3CCC[C@@H]3c3cccc(F)c3)nn12)C(F)F [X-124] | 844 nM | > 10000 nM
13 | CC(=O)c1cnc2ccc(N3CCC[C@@H]3c3cccc(F)c3)nn12 [X-125, (R)-1-(6-(2-(3-fluorophenyl)pyrrolidin-1-yl)imidazo[1,2-b]pyridazin-3-yl)ethanone] | 219 nM | > 10000 nM
14 | O=C(CCc1cccc(F)c1)c1cnc2ccc(N3CCC[C@@H]3c3cccc(F)c3)nn12 [X-127, (R)-3-(3-fluorophenyl)-1-(6-(2-(3-fluorophenyl)pyrrolidin-1-yl)imidazo[1,2-b]pyridazin-3-yl)propan-1-one] | 38 nM | > 10000 nM
15 | O=C(/C=C/c1cccc(N2CCOCC2)n1)c1cnc2ccc(N3CCC[C@@H]3c3cccc(F)c3)nn12 [X-128] | 174 nM | 1390 nM
16 | O=C(CCc1cccc(N2CCOCC2)n1)c1cnc2ccc(N3CCC[C@@H]3c3cccc(F)c3)nn12 [X-129] | 88 nM | > 9710 nM
17 | COc1cccc(/C=C/C(=O)c2cnc3ccc(N4CCC[C@@H]4c4cccc(F)c4)nn23)n1 [X-131] | 194 nM | 1670 nM
18 | O=C(NOCC1CC1)c1cnc2ccc(N3CCC[C@@H]3c3cccc(F)c3)nn12 [X-143] | 45 nM | > 10000 nM

Row | SMILES | IC50 [1] | IC50 [2]
19 | O=C(NOC1CCCCO1)c1cnc2ccc(N3CCC[C@@H]3c3cccc(F)c3)nn12 (stereo partly shown) [X-144] | 128 nM | > 10000 nM
20 | CC(C)(C)ONC(=O)c1cnc2ccc(N3CCC[C@@H]3c3cccc(F)c3)nn12 [X-145] | 33 nM | > 10000 nM
21 | CN(C)CCONC(=O)c1cnc2ccc(N3CCC[C@@H]3c3cccc(F)c3)nn12 [X-146] | 302 nM | > 10000 nM
22 | O=C(NO)c1cnc2ccc(N3CCC[C@@H]3c3cccc(F)c3)nn12 [X-150] | 210 nM | > 10000 nM
23 | CONC(=O)c1cnc2ccc(N3CCC[C@@H]3c3cccc(F)c3)nn12 [X-151] | 45 nM | > 10000 nM
24 | CCONC(=O)c1cnc2ccc(N3CCCC3c3cccc(F)c3)nn12 (stereo not shown) [X-152, N-ethoxy-6-(2-(3-fluorophenyl)pyrrolidin-1-yl)imidazo[1,2-b]pyridazine-3-carboxamide] | 42 nM | > 10000 nM
25 | CN1CCN(NC(=O)c2cnc3ccc(N4CCC[C@@H]4c4cccc(F)c4)nn23)CC1 [X-154, (R)-6-(2-(3-fluorophenyl)pyrrolidin-1-yl)-N-(4-methylpiperazin-1-yl)imidazo[1,2-b]pyridazine-3-carboxamide] | 153 nM | > 10000 nM
26 | NNC(=O)c1cnc2ccc(N3CCC[C@@H]3c3cccc(F)c3)nn12 [X-155] | 242 nM | > 10000 nM
27 | CCOC(=O)c1cnc2ccc(N3CCCCC3c3cccc(F)c3)nn12 (stereo not shown) [X-156, ethyl 6-(2-(3-fluorophenyl)piperidin-1-yl)imidazo[1,2-b]pyridazine-3-carboxylate] | 93 nM | > 10000 nM
28 | COC(=O)c1cnc2ccc(N3CCC[C@@H]3c3cccc(F)c3)nn12 [X-157] | 112 nM | > 10000 nM
29 | CCOC(=O)c1cnc2ccc(N3CCC[C@@H]3c3cccc(F)c3)nn12 [X-158, (R)-ethyl 6-(2-(3-fluorophenyl)pyrrolidin-1-yl)imidazo[1,2-b]pyridazine-3-carboxylate] | 93 nM | > 10000 nM
30 | CCOC(=O)c1cnc2ccc(N3CCC(=O)C3c3cccc(F)c3)nn12 (stereo not shown) [X-159, ethyl 6-(2-(3-fluorophenyl)-3-oxopyrrolidin-1-yl)imidazo[1,2-b]pyridazine-3-carboxylate] | 251 nM | > 10000 nM
31 | CCOC(=O)c1cnc2ccc(N3C[C@H](O)C[C@@H]3c3cccc(F)c3)nn12 [X-160, ethyl 6-((2R,4R)-2-(3-fluorophenyl)-4-hydroxypyrrolidin-1-yl)imidazo[1,2-b]pyridazine-3-carboxylate] | 73 nM | > 10000 nM
32 | [2H]C1([2H])C(c2cccc(F)c2)N(c2ccc3ncc(C(=O)OCC)n3n2)C([2H])([2H])C1([2H])[2H] (stereo not shown) [X-161] | 63 nM | > 10000 nM
33 | [2H]C1(c2cccc(F)c2)CCCN1c1ccc2ncc(C(=O)OCC)n2n1 (stereo not shown) [X-162] | 80 nM | > 10000 nM
34 | [2H]C1([2H])N(c2ccc3ncc(C(=O)OCC)n3n2)C([2H])(c2cccc(F)c2)C([2H])([2H])C1([2H])[2H] (stereo not shown) [X-163] | 79 nM | > 10000 nM
35 | CCOC(=O)c1cnc2ccc(N3CC(F)(F)C(F)(F)[C@@H]3c3cccc(F)c3)nn12 [X-164, (S)-ethyl 6-(3,3,4,4-tetrafluoro-2-(3-fluorophenyl)pyrrolidin-1-yl)imidazo[1,2-b]pyridazine-3-carboxylate] | 600 nM | > 10000 nM

Stronger by IC50 [1], values ahead:

Row | IC50 [1] | SMILES | IC50 [2]
36 | 3 nM | O=C(N[C@@H]1c2ccccc2C[C@H]1O)c1cnc2ccc(N3CCC[C@@H]3c3cccc(F)c3)nn12 [X-106] | > 10000 nM
37 | 13 nM | O=C(NCC(F)(F)F)c1cnc2ccc(N3CCCC3c3cccc(F)c3)nn12 (stereo not shown) [X-111] | > 10000 nM
38 | 9 nM | O=C(NCCN1CCOCC1)c1cnc2ccc(N3C[C@@H](F)C[C@@H]3c3cccc(F)c3)nn12 [X-113] | > 10000 nM
39 | 1 nM | O=C(NCC(F)F)c1cnc2ccc(N3C[C@@H](F)C[C@@H]3c3cccc(F)c3)nn12 [X-114] | 7490 nM
40 | 1 nM | CC(C)(C)OC(=O)N1CCC(NC(=O)c2cnc3ccc(N4C[C@@H](F)C[C@@H]4c4cccc(F)c4)nn23)CC1 [X-115] | 4600 nM
41 | 3 nM | O=C(NCCO)c1cnc2ccc(N3C[C@@H](F)C[C@@H]3c3cccc(F)c3)nn12 [X-119] | > 10000 nM
42 | 2 nM | CS(=O)(=O)N1CCC(NC(=O)c2cnc3ccc(N4C[C@@H](F)C[C@@H]4c4cccc(F)c4)nn23)CC1 [X-121] | 5140 nM
43 | 22 nM | O=C(C=Cc1cccc(F)c1)c1cnc2ccc(N3CCC[C@@H]3c3cccc(F)c3)nn12 [X-126, (R)-3-(3-fluorophenyl)-1-(6-(2-(3-fluorophenyl)pyrrolidin-1-yl)imidazo[1,2-b]pyridazin-3-yl)prop-2-en-1-one] | 1090 nM
44 | 24 nM | Cn1cccc1/C=C/C(=O)c1cnc2ccc(N3CCC[C@@H]3c3cccc(F)c3)nn12 [X-130] | > 10000 nM
45 | 1 nM | CCONC(=O)c1cnc2ccc(N3C[C@@H](F)C[C@@H]3c3cccc(F)c3)nn12 [X-142, N-ethoxy-6-((2R,4S)-4-fluoro-2-(3-fluorophenyl)pyrrolidin-1-yl)imidazo[1,2-b]pyridazine-3-carboxamide] | 6690 nM
46 | 31 nM | O=C(NOCCO)c1cnc2ccc(N3CCC[C@@H]3c3cccc(F)c3)nn12 [X-147] | > 10000 nM
47 | 28 nM | COCCONC(=O)c1cnc2ccc(N3CCC[C@H]3c3cccc(F)c3)nn12 [X-148] | > 10000 nM
48 | 23 nM | CCONC(=O)c1cnc2ccc(N3CCC[C@@H]3c3cccc(F)c3)nn12 [X-149] | > 10000 nM
49 | 10 nM | O=C(NO)c1cnc2ccc(N3C[C@@H](F)C[C@@H]3c3cccc(F)c3)nn12 [X-153] | > 10000 nM
50 | 4 nM | CCOC(=O)c1cnc2ccc(N3C[C@@H](F)C[C@@H]3c3cccc(F)c3)nn12 [X-165, ethyl 6-((2R,4S)-4-fluoro-2-(3-fluorophenyl)pyrrolidin-1-yl)imidazo[1,2-b]pyridazine-3-carboxylate] | > 10000 nM
